Experimental data published in ChEMBL document CHEMBL1149609, “Synthesis and evaluation of human T cell stimulating activity of an alpha-sulfatide analogue” (Bioorg Med Chem, 2007).
Active and inactive are the calls of the source.

Key:
Assay type in all cases: functional
Homo sapiens [1] = species: Homo sapiens; assay: Stimulation of CD1d-restricted iNKTcell clone BGA01 assessed as IL4 release after 48 hrs by ELISA
Homo sapiens [2] = species: Homo sapiens; assay: Stimulation of sulfatide-specific CD1a-restricted Tcell clone K34B9.1 assessed as IL4 release after 48 hrs by ELISA
Homo sapiens [3] = species: Homo sapiens; assay: Stimulation of CD1d-restricted iNKTcell clone BGA89 assessed as gammaIFN release after 48 hrs by ELISA
Homo sapiens [4] = species: Homo sapiens; assay: Stimulation of CD1d-restricted iNKTcell clone BGA89 assessed as IL4 release after 48 hrs by ELISA
Homo sapiens [5] = species: Homo sapiens; assay: Stimulation of CD1d-restricted iNKTcell clone BGA01 assessed as gammaIFN release after 48 hrs by ELISA
Homo sapiens [6] = species: Homo sapiens; assay: Stimulation of sulfatide-specific CD1a-restricted Tcell clone K34B9.1 assessed as gammaIFN release after 48 hrs by ELISA

Measured: Activity

CCCCCCCCCCCCC/C=C/[C@@H](O)[C@H](CO[C@H]1O[C@H](CO)[C@H](O)[C@H](OS(=O)(=O)O)[C@H]1O)NC(=O)CCCCCCCCCCCCCCCCCCCCC
inactive: Homo sapiens [2] | Homo sapiens [6]
active: all other assays above
